According to patent US20240189276A1, “COMPOSITIONS COMPRISING LACTATE DEHYDROGENASE-A INHIBITORS AND METHODS OF PRODUCTION AND USE THEREOF” (Southwestern Oklahoma State University, priority 2022, published 2024):

Key:
LDHA = LDHA (Homo sapiens, UniProt P00338); settings: literature; cited from earlier work
cells = settings: literature; cited from earlier work
[1] = literature; cited from earlier work
cancer cell growth = settings: literature, hypoxic conditions; read-out: IC50, inhibition of cancer cell growth; cited from earlier work
MIA PaCa-2 = settings: literature; read-out: cell viability IC50 in MIA PaCa-2; cited from earlier work
[2] = Cytotoxicity assay in hTERT immortalized normal pancreatic cells; assay type: cell-based; settings: human, HPNE cells (hTERT immortalized normal pancreatic cells), read-out: Cytotoxicity IC50 ± SD, HPNE Normal
Protocol: (§1) Cytotoxicity study: Anticancer potency was investigated using a fluorescence-based high throughput confocal microscopy cell viability/proliferation/cell death assay. […] Selected compounds were also tested in the FC1199 pancreatic cancer line from the KPC-1 genetically engineered mouse model. Compounds were also tested in hTERT immortalized normal pancreatic (HPNE) cell lines to rule out nonspecific cytotoxicity of compounds.
(§2) Cell lines. The human PANC-1, MiaPaCa-2, and HPNE cell lines were obtained from American Type Culture Collection (ATCC, Manassas, VA, USA). Mouse pancreatic cancer FC1199 cells were obtained from the KPC-1 genetically engineered mouse model that has mutated K-Ras, metastasizes to the liver, and forms desmoplasia.
(§3) Cytotoxicity assay. Cytotoxicity was assessed using the viability/proliferation/necrosis assay. […] Confocal images were acquired using the Operetta High Content Imaging System (PerkinElmer). […] SYTOX Green will be detected using an excitation wavelength of 500-520 nm and an emission wavelength of 520-530 nm. Brightfield images will also be acquired for each field. […] Cell counts were summed over the five fields for each well, and the percentage of viable cells was calculated relative to the untreated control.

[3] = system: FC1199 pancreatic cancer cells; test: Cytotoxicity (viability/proliferation/necrosis) assay, FC1199; assay type: cell-based; settings: Mus musculus, Pancreatic cancer cell; FC-1199, 48 hr; read-out: Cytotoxicity IC50 ± SD, FC-1199
Protocol: as §1, §2, §3

PANC-1 cells = test: Cytotoxicity (viability/proliferation/necrosis) assay, PANC-1; assay type: cell-based; settings: Homo sapiens; PANC-1, 48 hr, normoxic; read-out: Cytotoxicity IC50 ± SD, PANC-1
Protocol: as §1, §2, §3

[4] = system: HeLa human cervical carcinoma cells; settings: literature; normoxic conditions stated for NHI-2; cited from earlier work
PDAC cells = settings: literature; cited from earlier work
PANC-1 = settings: literature, normoxic conditions; read-out: viability IC50 in PANC-1; cited from earlier work
[5] = system: human pancreatic and lymphoma cancer xenografts; settings: literature; cited from earlier work
Snu398 cells = settings: literature; read-out: cell viability EC50 in Snu398 cells; cited from earlier work
hLDH5 (LDHA) = hLDH5 (LDHA) (Homo sapiens, UniProt P00338); test: Biochemical LDHA (hLDH5) inhibition assay, NADH fluorescence; settings: read-out: LDHA inhibition IC50 ± SD
Protocol: Biochemical LDHA inhibition assay: The hLDH5 (LDHA) enzymatic activity was measured by fluorescence (excitation@ 340 nm, emission@ 460 nm) to monitor the rate of conversion of NADH to NAD+at 37° C.
The hLDH5 (LDHA) inhibition assay was performed by measuring the fluorescence (excitation@ 340 nm, emission@ 460 nm) and monitoring the rate of conversion of NADH to NAD+at 37° C. as reported. […] The stock solution of compounds was prepared in DMSO. […] The experiment involved adding a solution of compounds in DMSO to the enzyme and NADH in a phosphate buffer. The assay plate was incubated at 25° C. for 10 minutes, and a baseline read was taken, after which pyruvate was added. The fluorescence was read for 5 minutes every 30 seconds in a microplate reader. The slope of a suitable linear timeframe was calculated with the curve bottom assigned to the initial 5-second recording before adding pyruvate (background rate) and the curve top to the negative (DMSO only) control wells rate. IC50 values were determined from dose-response curves using four-parameter logistic non-linear regression analysis in Prism Software v9.0. The assays were performed in triplicates and the data is presented as mean±SD (n=3).

Cc1nc2ccc(NC(=O)CCNC(=O)CCCc3ccc(CC(C(=O)O)C(=O)O)cc3)cc2s1 [AZ33]
IC50 (LDHA): 0.5 µM | cellular activity (cells): inactive in cells

GNE-140
pharmacokinetics / clearance in vivo [1]: high clearance | IC50 (cancer cell growth): 2 µM | IC50 (MIA PaCa-2): 2.05 µM

O=C(CC(C(=O)O)c1ccc(C(F)(F)F)cc1)Nc1ccc(C(=O)N2CCc3ccccc32)cc1 (centres unmarked) [Compound 19]
IC50 at 48 hr [2]: > 50 µM | IC50 [3]: 56.5 µM | IC50 (PANC-1 cells): 43.1 ± 4.87 µM

COC(=O)c1cc2c(C(F)(F)F)cc(-c3ccccc3)cc2n1O [NHI-2]
IC50 [4]: 33.4 µM | apoptosis and gemcitabine synergy (PDAC cells): induced apoptosis, and synergistically enhanced gemcitabine activity in PDAC cells | IC50 (PANC-1): 22.2 µM

CCCc1c(O)c(O)c(C(=O)O)c2cc(Cc3ccccc3)c(C)cc12 [FX-11]
IC50 [4]: 23.3 µM | progression of cancer xenografts [5]: inhibit the progression of human pancreatic and lymphoma cancer xenografts

COc1ncc(-c2ccc3c(Nc4cc(Oc5cc(F)cc(F)c5)cc(C(=O)O)c4)c(S(=O)(=O)NC4CC4)cnc3c2)c(OC)n1 [GSK2837808A]
pharmacokinetics / clearance in vivo [1]: poor pharmacokinetics in vivo | IC50 (cancer cell growth): 2.97 µM | EC50 (Snu398 cells): 2.9 µM

COC(=O)C(CC(=O)Nc1ccc(C(=O)N2CCc3ccccc32)cc1)c1ccc(C(F)(F)F)cc1 (centres unmarked) [Compound 17]
IC50 at 48 hr [2]: 50.7 ± 3.6 µM | IC50 [3]: 73.4 ± 6.8 µM | IC50 (PANC-1 cells): 24.2 ± 1.08 µM

COC(=O)C(CC(=O)Nc1ccc(C(=O)c2nccn2C)cc1)c1ccc(C(F)(F)F)cc1 (centres unmarked) [Compound 4]
IC50 at 48 hr [2]: 49.5 ± 7.3 µM | IC50 [3]: 12.1 ± 1.2 µM | IC50 (PANC-1 cells): 23.9 ± 1.8 µM

COC(=O)C(CC(=O)Nc1ccc(F)cn1)c1ccc(C(F)(F)F)cc1 (centres unmarked) [Compound 23]
IC50 at 48 hr [2]: > 50 µM | IC50 [3]: 13.3 ± 0.9 µM | IC50 (hLDH5 (LDHA)): 5.58 ± 1.05 µM | IC50 (PANC-1 cells): 22.3 ± 2 µM

Cn1ccnc1C(=O)c1ccc(NC(=O)CC(C(=O)O)c2ccc(C(F)(F)F)cc2)cc1 (centres unmarked) [Compound 5]
IC50 at 48 hr [2]: > 50 µM | IC50 [3]: 20.8 ± 2.97 µM | IC50 (PANC-1 cells): 43.3 ± 3.98 µM
